The record followed here is publication PMC11995724, “Antibiotic target discovery by integrated phenotypic and activity-based profiling of electrophilic fragments” (Cell chemical biology, 2025).

The nature of the data set: in vitro. As to conditions: human, hek293t cells.
With `N#CC(=Cc1cn2cc(Cl)ccc2n1)C(=O)NC1CCCC1` [9-P15, 3-{6-chloroimidazo[1,2-a]pyridin-2-yl}-2-cyano-N-cyclopentylprop-2-enamide], the viability (usually a read-out of living cells in per cent, often relative to untreated cells) at 48 h, 25 µM amounted to 120%. To `CNC(=O)C(C#N)=Cc1cc(C)n(-c2cccc3ccccc23)c1C` [9-P16, 2-cyano-3-[2,5-dimethyl-1-(naphthalen-1-yl)-1H-pyrrol-3-yl]-N-methylprop-2-enamide] belongs 109%; to `N#CC(=Cc1cc(Cl)ccc1O)C(=O)Nc1cccc2ccccc12` [9-P17, 3-(5-chloro-2-hydroxyphenyl)-2-cyano-N-(naphthalen-1-yl)prop-2-enamide], 130%.

On to `N#CC(=Cc1cnc2ccccn12)C(=O)NCc1ccccc1` [9-P18, N-benzyl-2-cyano-3-{imidazo[1,2-a]pyridin-3-yl}prop-2-enamide], for which the viability at 48 h, 25 µM amounted to 127%.

Regarding `COc1ccccc1NC(=O)C(C#N)=Cc1sccc1C` [9-P19, 2-cyano-N-(2-methoxyphenyl)-3-(3-methylthiophen-2-yl)prop-2-enamide], the viability at 48 h, 25 µM worked out at 133%. For the molecule `CC(C)Oc1ccccc1C=C(C#N)C(=O)Nc1cccc(Cl)c1` [9-P20, N-(3-chlorophenyl)-2-cyano-3-[2-(propan-2-yloxy)phenyl]prop-2-enamide], the viability at 48 h, 25 µM is 107%. To `N#CC(=Cc1ccc(C#N)cc1)C(=O)N1CCCC1` [9-P21, 4-[2-cyano-2-(pyrrolidine-1-carbonyl)eth-1-en-1-yl]benzonitrile] belongs 117%; to `C/C(O)=C(\C#N)C(=O)Nc1ccc(-c2ccccc2Cl)cc1` [9-P22, (2Z)-N-{2'-chloro-[1,1'-biphenyl]-4-yl}-2-cyano-3-hydroxybut-2-enamide], 107%. Turning to `O=C1C=CC(=O)N1c1ccccc1Sc1ccc(Cl)cc1` [10-A03, 1-{2-[(4-chlorophenyl)sulfanyl]phenyl}-2,5-dihydro-1H-pyrrole-2,5-dione], the viability at 48 h, 25 µM stood at 7.21%. To `CC1Cc2cc(C(=O)CCl)ccc2N1S(C)(=O)=O` (stereo not shown) [10-A04, 2-chloro-1-(1-methanesulfonyl-2-methyl-2,3-dihydro-1H-indol-5-yl)ethan-1-one] belongs 0.28%; to `COc1ccc(CCN2C(=O)C=CC2=O)cc1` [10-A05, 1-[2-(4-methoxyphenyl)ethyl]-2,5-dihydro-1H-pyrrole-2,5-dione], 5.85%. To `Cc1cc(C(=O)C(C)Cl)c(C)n1-c1ccccc1` (stereo not shown) [10-A06, 2-chloro-1-(2,5-dimethyl-1-phenyl-1H-pyrrol-3-yl)propan-1-one] belongs 99.9%. To `COC(=O)c1sccc1N1C(=O)C=CC1=O` [10-A07, methyl 3-(2,5-dioxo-2,5-dihydro-1H-pyrrol-1-yl)thiophene-2-carboxylate] belongs 16.6%; to `CC(Cl)C(=O)c1ccc(NS(C)(=O)=O)cc1` (stereo not shown) [10-A08, N-[4-(2-chloropropanoyl)phenyl]methanesulfonamide], 93.7%; to `Cc1ccc(C(=O)CCl)o1` [10-A09, 2-chloro-1-(5-methylfuran-2-yl)ethan-1-one], 48.3%.

`CCOC(=O)c1[nH]c(C)c(C(=O)CCl)c1C` [10-A10, ethyl 4-(2-chloroacetyl)-3,5-dimethyl-1H-pyrrole-2-carboxylate]: the viability at 48 h, 25 µM came to 0.365%. Take `CC(=O)Nc1c(C)cc(C)c(C(=O)CCl)c1C` [10-A12, N-[3-(2-chloroacetyl)-2,4,6-trimethylphenyl]acetamide]: the viability at 48 h, 25 µM amounted to 98.1%. For `Cc1cc(C(=O)CCl)co1` [10-A13, 2-chloro-1-(5-methylfuran-3-yl)ethan-1-one], the viability at 48 h, 25 µM worked out at 41.5%. The same measure for `CCOc1ccc(N2C(=O)C=CC2=O)cc1` [10-A14, 1-(4-ethoxyphenyl)-2,5-dihydro-1H-pyrrole-2,5-dione]: 4.27%.

Consider `O=C(CCl)Cc1ccc(Cl)cc1Cl` [10-A15, 1-chloro-3-(2,4-dichlorophenyl)propan-2-one], for which the viability at 48 h, 25 µM was 0.248%. To `O=C(CCl)c1c[nH]c(C(=O)N2CCCC2)c1` [10-A16, 2-chloro-1-[5-(pyrrolidine-1-carbonyl)-1H-pyrrol-3-yl]ethan-1-one] belongs 0.377%; to `CC(Cl)C(=O)c1ccc(F)c(F)c1` (stereo not shown) [10-A17, 2-chloro-1-(3,4-difluorophenyl)propan-1-one], 66.4%. Turning to `O=C1C=CC(=O)N1c1ccc(SC(F)F)cc1` [10-A18, 1-{4-[(difluoromethyl)sulfanyl]phenyl}-2,5-dihydro-1H-pyrrole-2,5-dione], the viability at 48 h, 25 µM was found to be 3.22%. Take `O=C(CCl)C1CC12CCCCC2` (stereo not shown) [10-A19, 2-chloro-1-{spiro[2.5]octan-1-yl}ethan-1-one]: the viability at 48 h, 25 µM amounted to 86.3%.

For the molecule `Cn1ncc2ccc(CNC(=O)N3CCSSCC3)cc21` [10-A20, N-[(1-methyl-1H-indazol-6-yl)methyl]-1,2,5-dithiazepane-5-carboxamide], the viability at 48 h, 25 µM was 93.8%. To `NC(=O)Cc1ccc(C(=O)CCl)s1` [10-A21, 2-[5-(2-chloroacetyl)thiophen-2-yl]acetamide] belongs 46.6%. The same measure for `Cc1cccc(-n2c(C)cc(C(=O)CCl)c2C)c1` [10-A22, 2-chloro-1-[2,5-dimethyl-1-(3-methylphenyl)-1H-pyrrol-3-yl]ethan-1-one]: 0.013%; for `CC(=O)NCCc1ccc(C(=O)C(C)Cl)cc1` (stereo not shown) [10-B03, N-{2-[4-(2-chloropropanoyl)phenyl]ethyl}acetamide]: 85.1%; for `Cn1cccc1C(=O)CCl` [10-B04, 2-chloro-1-(1-methyl-1H-pyrrol-2-yl)ethan-1-one]: 64.6%.

On to `O=C(CCl)c1c[nH]c2ccccc12` [10-B05, 2-chloro-1-(1H-indol-3-yl)ethan-1-one], for which the viability at 48 h, 25 µM is 111%. To `O=C(CCl)c1ccc(NC(=O)c2ccccc2)cc1` [10-B06, N-[4-(2-chloroacetyl)phenyl]benzamide] belongs 1.37%; to `O=C(O)c1coc(C(=O)CCl)c1` [10-B07, 5-(2-chloroacetyl)furan-3-carboxylic acid], 107%; to `Cc1cc(C(=O)CCl)c(C)n1CC1CCCO1` (stereo not shown) [10-B08, 2-chloro-1-{2,5-dimethyl-1-[(oxolan-2-yl)methyl]-1H-pyrrol-3-yl}ethan-1-one], 54.2%. In the case of `N#Cc1ccc(N2C(=O)C=CC2=O)cc1` [10-B09, 4-(2,5-dioxo-2,5-dihydro-1H-pyrrol-1-yl)benzonitrile], the viability at 48 h, 25 µM was found to be 82.1%. The same measure for `O=C(CCl)c1ccc(C(F)(F)F)cc1` [10-B10, 2-chloro-1-[4-(trifluoromethyl)phenyl]ethan-1-one]: 13.9%; for `O=C(c1cc(=O)[nH]c2ccc([N+](=O)[O-])cc12)N1CCSSCC1` [10-B11, 4-(1,2,5-dithiazepane-5-carbonyl)-6-nitro-1,2-dihydroquinolin-2-one]: 111%; for `Cc1cc(C(=O)CCl)c(C)n1C1CCS(=O)(=O)C1` (stereo not shown) [10-B12, 3-[3-(2-chloroacetyl)-2,5-dimethyl-1H-pyrrol-1-yl]-1lambda6-thiolane-1,1-dione]: 3.75%.

On to `N#Cc1ccccc1N1C(=O)C=CC1=O` [10-B13, 2-(2,5-dioxo-2,5-dihydro-1H-pyrrol-1-yl)benzonitrile], for which the viability at 48 h, 25 µM came out at 65.2%. For `Cc1ccc(-n2c(C)cc(C(=O)CCl)c2C)cc1C` [10-B14, 2-chloro-1-[1-(3,4-dimethylphenyl)-2,5-dimethyl-1H-pyrrol-3-yl]ethan-1-one], the viability at 48 h, 25 µM amounted to 0.754%. As for `COc1cc(Cl)c(C)cc1N1C(=O)C=CC1=O` [10-B15, 1-(4-chloro-2-methoxy-5-methylphenyl)-2,5-dihydro-1H-pyrrole-2,5-dione], the viability at 48 h, 25 µM worked out at 85.2%.

On to `Cc1cc(C(=O)CCl)c(C)n1-c1cccc([N+](=O)[O-])c1` [10-B16, 2-chloro-1-[2,5-dimethyl-1-(3-nitrophenyl)-1H-pyrrol-3-yl]ethan-1-one], for which the viability at 48 h, 25 µM amounted to 0.976%.

In the case of `Cc1c(Cl)cccc1N1C(=O)C=CC1=O` [10-B17, 1-(3-chloro-2-methylphenyl)-2,5-dihydro-1H-pyrrole-2,5-dione], the viability at 48 h, 25 µM is 130%. To `Cc1cc(C(=O)CCl)c(C)n1CCc1ccccc1` [10-B18, 2-chloro-1-[2,5-dimethyl-1-(2-phenylethyl)-1H-pyrrol-3-yl]ethan-1-one] belongs 0.0262%; to `CS(=O)(=O)N1CCc2cc(C(=O)CCl)ccc21` [10-B19, 2-chloro-1-(1-methanesulfonyl-2,3-dihydro-1H-indol-5-yl)ethan-1-one], 7.21%; to `Cc1ccc(C(=O)C(C)Cl)cc1C` (stereo not shown) [10-B20, 2-chloro-1-(3,4-dimethylphenyl)propan-1-one], 85%.

On to `O=C(NC1CC1)C1(C(=O)N2CCSSCC2)CCC1` [10-B21, N-cyclopropyl-1-(1,2,5-dithiazepane-5-carbonyl)cyclobutane-1-carboxamide], for which the viability at 48 h, 25 µM came to 95.1%.

As for `CCOC(=O)c1c(C)[nH]c(C(=O)C(C)Cl)c1C` (stereo not shown) [10-B22, ethyl 5-(2-chloropropanoyl)-2,4-dimethyl-1H-pyrrole-3-carboxylate], the viability at 48 h, 25 µM was determined as 95.2%. The same measure for `CCC(=O)Nc1ccc(C(=O)CCl)cc1` [10-C03, N-[4-(2-chloroacetyl)phenyl]propanamide]: 74.1%. As to `CCCc1ccc(C(=O)CCl)cc1` [10-C04, 2-chloro-1-(4-propylphenyl)ethan-1-one], the viability at 48 h, 25 µM is 54.6%. For `NC(=O)c1coc(C(=O)CCl)c1` [10-C05, 5-(2-chloroacetyl)furan-3-carboxamide], the viability at 48 h, 25 µM was determined as 60.9%. For the molecule `Cc1ccc(-n2c(C)cc(C(=O)CCl)c2C)cc1F` [10-C06, 2-chloro-1-[1-(3-fluoro-4-methylphenyl)-2,5-dimethyl-1H-pyrrol-3-yl]ethan-1-one], the viability at 48 h, 25 µM is 0.213%. The same measure for `C=CS(=O)(=O)Nc1ccccc1` [10-C07, N-phenylethene-1-sulfonamide]: 30.8%.
